The nature of the data set: Kinetic solubility of compound by measuring concentration at pH 7.4 in saturated PBS buffer by UV LCMS/MS using calibration curves. The assay has been performed by Enamine biological services, Bienta Ltd.The protocol is publicly available: dx.doi.org/10.17504/protocols.io.j8nlk8y41l5r/v1. The format is physicochemical. To be noted: for solubility kinetic: PBS buffer; for Solubility (mean): buffer.

Each structure is given as a SMILES string. Values after ≈ are worked out from the molar mass of the structure shown. Values joined by “and” are separate entries in the source; they are usually repeats but may differ in a detail not shown here. Equal entries are not always repeated.

As usually defined, the kinetic solubility is solubility judged after dilution from a stock solution rather than from solid. Molecule `CNC(=O)c1cccc(-c2cc3c(N[C@H](c4ccc5c(c4)S(=O)(=O)CCC5)C(C)C)ncnc3[nH]2)c1` returned a solubility (kinetic) of 13 µM (≈ 6.55 µg/mL).
`CC(C)[C@@H](Nc1ncnc2[nH]c(-c3ccc4cncn4c3)cc12)c1ccc2c(c1)S(=O)(=O)CCC2` showed a kinetic solubility of 14 µM (≈ 6.81 µg/mL).
The molecule `Cc1nn(C)cc1-c1cc2c(N[C@H](c3ccc4c(c3)S(=O)(=O)CCC4)C(C)C)ncnc2[nH]1` showed a kinetic solubility of 65 µM (≈ 30.2 µg/mL).
As for `COc1ccc([C@@H](CC(=O)O)NC(=O)c2ncnc3[nH]ccc23)cc1`, the kinetic solubility is ≥ 400 µM.
In the case of `O=C(Nc1ccccc1)Nc1ccc(C(=O)NC2c3cccc(O)c3CC2C(=O)O)cc1` (configuration not stated), the kinetic solubility came to 319 µM (≈ 138 µg/mL).
Turning to `CC(C)[C@@H](Nc1ncnc2[nH]c(-c3cnn(C)c3)cc12)c1ccc2c(c1)S(=O)(=O)NCC2`, the solubility (kinetic) was 105 µM (≈ 47.4 µg/mL).
For `CC(C)[C@@H](Nc1ncnc2[nH]c(-c3cnn(C)c3C#N)cc12)c1ccc2c(n1)OCCO2`, the kinetic solubility is 89 µM (≈ 38.3 µg/mL); the “Solubility (mean)” value is 60 µM and 50 µM.
As for `CC(C)[C@H](Nc1ncnc2[nH]c(-c3cnn(CC(N)=O)c3)cc12)c1ccc2c(c1)S(=O)(=O)CCC2`, the kinetic solubility was 338 µM (≈ 167 µg/mL).
For `CC(C)[C@@H](Nc1ncnc2[nH]c(-c3cnn(CC(N)=O)c3)cc12)c1ccc2c(n1)OCCO2`, the kinetic solubility stood at 385 µM (≈ 173 µg/mL) and the “Solubility (mean)” value is 395 µM (≈ 177 µg/mL).
`CC(C)[C@@H](Nc1ncnc2[nH]cc(C(N)=O)c12)c1ccc2c(c1)OCCO2` gave a solubility (kinetic) of 375 µM (≈ 138 µg/mL).
Still for that read-out and setting: the value for `Cc1nn(C)cc1-c1cc2c(N[C@@H](c3ccc4c(c3)S(=O)(=O)CCC4)C(C)C)ncnc2[nH]1` was 63 µM (≈ 29.3 µg/mL).
The molecule `CC(C)[C@H](Nc1ncnc2[nH]c(-c3cnn(C)c3C#N)cc12)c1ccc2c(c1)OCCO2` came in with a kinetic solubility of 15 µM (≈ 6.44 µg/mL).
Molecule `CC(C)[C@H](Nc1ncnc2[nH]c(-c3cnn(CC(N)=O)c3)cc12)c1ccc2c(c1)OCCO2` returned a solubility (kinetic) of 280 µM (≈ 125 µg/mL).
Still for that read-out and setting: the value for `O=C(Nc1cccc2c(C(=O)N[C@@H]3c4ccccc4C[C@@H]3C(=O)O)c[nH]c12)NC1CC1` was ≥ 400 µM.
Consider `CNCc1cc(-c2cc3c(N[C@@H](c4ccc5c(c4)S(=O)(=O)CCC5)C(C)C)ncnc3[nH]2)co1`, for which the kinetic solubility is 321 µM (≈ 154 µg/mL) and the “Solubility (mean)” value amounted to 345 µM (≈ 165 µg/mL).
For the molecule `C[C@H](C(=O)O)[C@@H](NC(=O)c1ncnc2[nH]ccc12)c1ccc(Br)cc1`, the solubility (kinetic) was 358 µM (≈ 144 µg/mL).
Consider `CC(C)[C@H](CO)Nc1ncnc2[nH]ccc12`, for which the kinetic solubility was ≥ 400 µM.
Still for that read-out and setting: next, `CC(C)[C@@H](Nc1ncnc2[nH]c(-c3cnn(CC(N)=O)c3)cc12)c1ccc2c(c1)NC(=O)CO2`: 25 µM (≈ 11.5 µg/mL).
As for `CC(C)[C@H](Nc1ncnc2[nH]c(-c3cnn(C)c3C#N)cc12)c1ccc2c(n1)NC(=O)CO2`, the kinetic solubility stood at 28 µM (≈ 12.4 µg/mL).
Consider `CCNC(=O)c1cc2c(N[C@@H](c3ccc4c(c3)S(=O)(=O)CCO4)C(C)C)ncnc2[nH]1`, for which the solubility (kinetic) was found to be 328 µM (≈ 145 µg/mL).
In turn, `Cn1ncc(-c2cc3c(N[C@@H](c4ccc5c(c4)OCCO5)C(C)(C)C)ncnc3[nH]2)c1C#N` had a solubility (kinetic) of 25 µM (≈ 11.1 µg/mL).
As for `Cn1ncc(-c2cc3c(N[C@@H](c4ccc5c(n4)OCCO5)C(C)(C)C)ncnc3[nH]2)c1C#N`, the kinetic solubility was found to be 25 µM (≈ 11.1 µg/mL) and the “Solubility (mean)” value was found to be 24 µM (≈ 10.7 µg/mL).
Take `CC(C)[C@@H](Nc1ncnc2[nH]c(-c3cnn(C)c3C#N)cc12)c1ccc2c(c1)S(=O)(=O)CCC2`: the solubility (kinetic) turned out to be 34 µM (≈ 16.2 µg/mL) and the “Solubility (mean)” value was determined as 26 µM (≈ 12.4 µg/mL).
Regarding `CNC(=O)c1cc2c(N[C@@H](c3ccc4c(c3)S(=O)(=O)CCC4)C(C)C)ncnc2[nH]1`, the kinetic solubility was determined as 369 µM (≈ 158 µg/mL) and the “Solubility (mean)” value was found to be 397 µM (≈ 170 µg/mL).
For the molecule `CNC(=O)c1cc2c(N[C@@H](c3ccc4c(c3)NC(=O)CO4)C(C)C)ncnc2[nH]1`, the kinetic solubility worked out at 372 µM (≈ 147 µg/mL) and the “Solubility (mean)” value is 380 µM (≈ 150 µg/mL).
`CC(C)(C)[C@H](Nc1ncnc2[nH]c(-c3cnn(CC(N)=O)c3)cc12)c1ccc2c(c1)OCCO2` yielded a solubility (kinetic) of 89 µM (≈ 41.1 µg/mL).
Turning to `CC(C)[C@@H](Nc1ncnc2[nH]ccc12)c1ccc2c(c1)NC(=O)CO2`, the kinetic solubility is 389 µM (≈ 131 µg/mL) and the “Solubility (mean)” value stood at 374 µM (≈ 126 µg/mL).
The molecule `CNC(=O)c1c[nH]c2ncnc(N[C@@H](c3ccc4c(c3)OCCO4)C(C)C)c12` had a kinetic solubility of 319 µM (≈ 122 µg/mL).
For `COc1ccc2c(c1)CCN(c1ncnc3[nH]ccc13)[C@H]2C(C)C`, the kinetic solubility is 14 µM (≈ 4.51 µg/mL).
As to `COc1ccc([C@@H](Cc2nnn[nH]2)NC(=O)c2ncnc3[nH]ccc23)cc1`, the kinetic solubility was determined as 395 µM (≈ 144 µg/mL).
Take `CNCc1cc(-c2cc3c(N[C@@H](c4ccc5c(c4)S(=O)(=O)NCC5)C(C)C)ncnc3[nH]2)co1`: the solubility (kinetic) was 372 µM (≈ 179 µg/mL).
The same measure, in the same setting: the value for `CC(C)(C)[C@H](Nc1ncnc2[nH]c(-c3cnn(CC(N)=O)c3)cc12)c1ccc2c(n1)OCCO2` was 372 µM (≈ 172 µg/mL); that for `CC(C)[C@@H](Nc1ncnc2[nH]c(-c3cnn(CCC(N)=O)c3)cc12)c1ccc2c(c1)OCCO2` was 236 µM (≈ 109 µg/mL).
`CNC(=O)Cn1cc(-c2cc3c(N[C@H](c4ccc5c(c4)S(=O)(=O)CCC5)C(C)C)ncnc3[nH]2)cn1`: the solubility (kinetic) stood at 323 µM (≈ 164 µg/mL).
Regarding `CC(C)[C@H](Nc1ncnc2[nH]c(C(=O)N[C@H]3CCN(C)C3)cc12)c1ccc2c(c1)S(=O)(=O)CCC2`, the kinetic solubility came out at 396 µM (≈ 197 µg/mL).
For the molecule `CCNC(=O)c1cc2c(N[C@@H](c3ccc4c(c3)S(=O)(=O)CCC4)C(C)C)ncnc2[nH]1`, the solubility (kinetic) was 336 µM (≈ 148 µg/mL) and the “Solubility (mean)” value was determined as 316 µM (≈ 140 µg/mL).
Regarding `CC(C)[C@H](Nc1ncnc2[nH]c(-c3cnn(CC(=O)N(C)C)c3)cc12)c1ccc2c(c1)S(=O)(=O)CCC2`, the kinetic solubility came to 361 µM (≈ 188 µg/mL).
`CC(C)[C@H](Nc1ncnc2[nH]cc(C(=O)NC3CC3)c12)c1ccc2c(c1)S(=O)(=O)CCC2` had a kinetic solubility of 19 µM (≈ 8.62 µg/mL).
Take `CNC(=O)c1c[nH]c2ncnc(N[C@@H](c3ccc4c(c3)NC(=O)CO4)C(C)C)c12`: the solubility (kinetic) stood at 28 µM (≈ 11 µg/mL).
Same read-out and setting: next, `CC(C)[C@H](Nc1ncnc2[nH]ccc12)c1ccc2c(c1)S(=O)(=O)CCC2`: 374 µM (≈ 139 µg/mL); `CNC(=O)c1cccc(-c2cc3c(N[C@@H](c4ccc5c(c4)S(=O)(=O)CCC5)C(C)C)ncnc3[nH]2)c1`: 15 µM (≈ 7.55 µg/mL).
Regarding `CC(C)[C@@H](Nc1ncnc2[nH]c(-c3cnn(CC(N)=O)c3)cc12)c1ccc2c(c1)S(=O)(=O)CCC2`, the kinetic solubility is 341 µM (≈ 168 µg/mL) and the “Solubility (mean)” value was found to be 335 µM (≈ 165 µg/mL).
For `CCNC(=O)c1cc2c(N[C@H](c3ccc4c(c3)S(=O)(=O)CCC4)C(C)C)ncnc2[nH]1`, the kinetic solubility came to 337 µM (≈ 149 µg/mL).
Take `CC(C)[C@@H](Nc1ncnc2[nH]cc(C(=O)NC3CC3)c12)c1ccc2c(c1)S(=O)(=O)CCC2`: the solubility (kinetic) was 257 µM (≈ 117 µg/mL) and the “Solubility (mean)” value was 216 µM (≈ 98 µg/mL).
In the case of `CC(C)[C@@H](Nc1ncnc(N)c1Cl)c1ccc2c(c1)S(=O)(=O)CCC2`, the kinetic solubility is ≥ 400 µM.
`CC(C)[C@@H](Nc1ncnc2[nH]c(-c3ccc4nnn(C)c4c3)cc12)c1ccc2c(c1)S(=O)(=O)CCC2` came in with a kinetic solubility of 6 µM (≈ 3.01 µg/mL).
On to `CC(C)[C@@H](Nc1ncnc2[nH]c(-c3cnn(C)c3)cc12)c1ccc2c(c1)S(=O)(=O)CCC2`, for which the solubility (kinetic) was found to be 94 µM (≈ 42.4 µg/mL) and the “Solubility (mean)” value is 111 µM (≈ 50 µg/mL).
`C[C@@H](C(=O)O)[C@@H](NC(=O)c1ncnc2[nH]ccc12)c1ccc(Br)cc1` gave a kinetic solubility of 386 µM (≈ 156 µg/mL).
Turning to `CC(C)[C@@H](Nc1ncnc2[nH]ccc12)c1ccc2c(c1)S(=O)(=O)CCC2`, the kinetic solubility came out at 385 µM (≈ 143 µg/mL) and the “Solubility (mean)” value turned out to be 386 µM (≈ 143 µg/mL).

The values are drawn from ChEMBL document CHEMBL5442663, “ASAP - Solubility” (2024).
